Assay results taken from patent US8901314B2, “Substituted pyrazoles as N-type calcium channel blockers” (Janssen Pharmaceutica NV, priority 2012, dated 2014).

How the values were obtained:
[1] = test system: Cav2.2 (N-type calcium channel; α1B, α2δ and β3 subunits stably expressed in HEK293 cells); assay: Automated electrophysiology assay (QPatch-HT patch clamp); format: cell-based; conditions: 0.1 μM; for QPatch % Inhibition, High Freq: high frequency stimulation (15th pulse of 5 Hz train); for QPatch % Inhibition, Low Freq: low frequency stimulation (1st pulse of train)
Protocol: The Cav2.2 (α1B) subunit (GenBank accession no. AAO53230; supplied by Lipscombe's laboratory at Brown University) was subcloned into pcDNA3.1, whereas the α2δ (M86621) and β3 (M88751) subunits were subcloned into pBudCE4.1 vectors. Stable cell lines expressing all three subunits were generated according to the following procedure: 1) HEK293 cells were transfected with α2δ−1/β3 expression constructs resulting in a stable cell line expressing α2δ−1 and β3 subunits that were selected under 200 μg/mL of Zeocin; 2) a stable cell line expressing α2δ−1/β3 subunits in high quantity as evidenced in its Western blots was isolated from the colony and purified; 3) this cell line was further transfected with Cav2.2 expression constructs, from which cells were subsequently selected under 400 μg/mL G418 and 200 μg/mL Zeocin; 4) these cells were clonally isolated, expanded and screened by Western blot analysis for expressing all three subunits
Cultures of cells stably expressing Cav2.2 were maintained at 37° C. in low glucose-containing Dulbecco's Modified Eagle medium (low glucose) under a 5% CO2 atmosphere. The medium was supplemented with 10% fetal bovine serum, 2 mM L-glutamine, 100 IU/mL penicillin, […] streptomycin, 400 μg/mL G418 and 200 μg/mL Zeocin.
High-throughput automated patch clamp system experiments were carried out using instruments (QPatch-HT) available from Sophion Biosciences, Inc. North Brunswick, N.J. Cells were grown in T175 flasks to 50%-90% confluence were enzymatically treated with Deatchin (Genlantis, San Diego, Calif., U.S.A.), centrifuged, rinsed and resuspended in 293 SFM II media (Life Technologies, Grand Island, N.Y., U.S.A.) supplemented with 25 mM HEPES (Sigma-Aldrich, St. Louis, Mo., U.S.A.) to a concentration of 2−3×10^6 cells/mL. Cells were added to automated cell preparation station on the QPatch-HT (Sophion Biosciences, North Brunswick, N.J., U.S.A.) and following a 10- to 30-min recovery period with gentle stirring, the assay protocol was initiated. During the automated cell preparation, cells were collected, centrifuged and resuspended in an extracellular (EC) solution containing 132 mM NaCl, 1.8 mM CaCl2, 5.4 mM KCl, 0.8 mM MgCl2, 10 mM glucose, and 10 mM HEPES (pH=7.4), adjusted with sucrose to 315 m0sm. The QPlate was primed with an intracellular solution containing 135 CsCl, 10 mM EGTA, 4 MgATP, 0.3 NaGTP, and 20 mM HEPES (pH=7.2), adjusted to approximately 290 m0sm with deionized water and the EC solution. Cells were added to the prepared QPlate wells by robotic pipettes of the QPatch-HT.
For cells determined to be in stable whole-cell patch clamp, the EC solution was replaced with a barium (Ba)/triethylammonium (TEA) solution containing 140 mM TEA-Cl, 10 mM BaCl2, 0.8 mM MgCl2, 10 mM glucose, and 10 mM HEPES (pH=7.4). High (40 mM) BaCl2 concentrations were made with adjustments of TEA-Cl (90 mM) to maintain the osmolarity. From a resting potential of −80 mV, a train of depolarizing pulses (15 pulses at 5 Hz, +20 mV) was delivered to the cell once every 30 sec for eight trains (4 min total), and the resulting currents were measured during a control period (no compound). This protocol was repeated for each subsequent addition of control buffer with or without compound (three periods total, each with four trains). The current generated in the 1st and 15th pulses of the last train of each period in the presence of each drug concentration was normalized to the current generated during the control period at the respective pulses (representing low- and high frequency stimulation, respectively). Data from both the second and third drug application period were analyzed for each cell. A final addition of Ba/TEA solution containing 60-100 uM CdCl2 was made to block all N-type current and “zero” the currents for each cell. A buffer/compound additions were made using a “spitting” feature of the QPatch-HT, which added three repretitions of 5 μL solution at the beginning of each recording period.

[2] = target: α1B (Cav2.2), β3 and α2δ subunits of the N-type calcium channel (stable HEK cell line) (Rattus norvegicus, UniProt Q02294); assay: Calcium-dye indicator assay (FDSS, KCl depolarization); format: cell-based; conditions: calcium mobilization response to 50 mM KCl; six-point concentration-response
Protocol: A stable cell line (HEK parent) co-expressing the α1B (Cav2.2), β3 and α2δ subunits of the N-type calcium channel subunits was used. These cells were routinely grown as monolayers in low glucose-containing Dulbecco's Modified Eagle Medium supplemented with 10% FBS, 2 mM L-glutamine, 100 I.U./mL penicillin, 100 μg/mL streptomycin, 400 μg/mL G418 and 200 μg/mL Zeocin (split ratio=1:5). Cells were maintained in 5% CO2 at 37° C. Compounds of Formula (I) were prepared as 10 mM stocks in DMSO from neat compound, if available. Otherwise, the 5 or 10 mM DMSO stock solutions provided in-house were used.
Calcium mobilization responses to KCl depolarization were evaluated by measuring the intensity of calcium-mediated fluorescent signal in the presence of BD Calcium Assay Dye (BD Biosciences, Franklin Lakes, N.J., U.S.A.), utilizing a Functional Drug Screening System (FDSS) by Hamamatsu Corporation (Bridgewater, N.J., U.S.A.).
Twenty-four hours prior to assay, cells were seeded in clear-base poly-D-lysine coated 384-well plates (BD Biosciences) at a density of 5,000 cells per well in culture medium and grown overnight in 5% CO2 at 37° C. On the day of assay growth media were removed and cells were loaded with BD calcium assay dye (BD Biosciences) for 35 min at 37° C. under 5% CO2 and then for 25 min at room temperature. Utilizing the FDSS, cells were exposed to representative compounds of Formula (I) at varying concentrations and intracellular calcium was measured for 5 min prior to the addition of 50 mM KCl for an additional 3 min of measurement.
Maximal fluorescence intensity (FI) achieved upon addition of 50 mM KCl was exported from the FDSS software and further analyzed using GraphPad Prism 4 (Graph Pad Software Inc., CA, U.S.A.). Data were normalized to the maximum average counts from quadruplicate wells for each condition in the presence of 50 mM KCl and to the minimum average counts in the presence of buffer. Theoretical curves were generated using nonlinear regression curve-fitting analysis of either sigmoidal concentration-response or sigmoidal concentration-response (variable slope), and the IC50 values with the best-fit dose curve determined by GraphPad Prism were reported.

| Compound | QPatch % Inhibition, High Freq [1] [%] | QPatch % Inhibition, Low Freq [1] [%] | IC50 [2] [nM] |
| --- | --- | --- | --- |
| COc1ccccc1-n1nc(C2C[C@@H](C)O[C@H](C)C2)cc1-c1ccc(Cl)cc1 (relative stereo) [Compound 61, 5-(4-Chlorophenyl)-3-[(trans)-2,6-dimethyltetrahydro-2H-pyran-4-yl]-1-(2-methoxyphenyl)-1H-pyrazole] | 62 | 30 | 1.5 |
| COc1ccccc1-n1nc([C@H]2CCO[C@@H](C(C)C)C2)cc1-c1ccc(Cl)cc1 (relative stereo) [Compound 64, 5-(4-Chlorophenyl)-1-(2-methoxyphenyl)-3-[(cis)-2-(1-methylethyl)tetrahydro-2H-pyran-4-yl]-1H-pyrazole] | 55 | 18 | 7.2 |
| COc1ccccc1-n1nc(C2C[C@@H](C)O[C@H](C)C2)cc1-c1ccccc1 (relative stereo) [Compound 67, 3-[(trans)-2,6-Dimethyltetrahydro-2H-pyran-4-yl]-1-(2-methoxyphenyl)-5-phenyl-1H-pyrazole] | 65 | 55 | 12 |
| COc1ncc(-c2cc(C3CC(C)(C)OC(C)(C)C3)nn2-c2ccccc2OC)cn1 [Compound 39, 2-Methoxy-5-[1-(2-methoxyphenyl)-3-(2,2,6,6-tetramethyltetrahydro-2H-pyran-4-yl)-1H-pyrazol-5-yl]pyrimidine] |  |  | 72 |
| CCN(CC)C(=O)c1ccc(-c2cc(C3CC(C)(C)OC(C)(C)C3)nn2-c2ccccc2OC)cc1 [Compound 40, N,N-Diethyl-4-[1-(2-methoxyphenyl)-3-(2,2,6,6-tetramethyltetrahydro-2H-pyran-4-yl)-1H-pyrazol-5-yl]-benzamide] |  |  | 270 |
| COc1ccccc1-n1nc(C2CC(C)(C)OC(C)(C)C2)cc1-c1cc2ccccc2o1 [Compound 41, 5-(1-Benzofuran-2-yl)-1-(2-methoxyphenyl)-3-(2,2,6,6-tetramethyltetrahydro-2H-pyran-4-yl)-1H-pyrazole] |  |  | 65 |
| COc1ccccc1-n1nc(C2CC(C)(C)OC(C)(C)C2)cc1-c1ccc2[nH]ccc2c1 [Compound 42, 5-[1-(2-Methoxyphenyl)-3-(2,2,6,6-tetramethyltetrahydro-2H-pyran-4-yl)-1H-pyrazol-5-yl]-1H-indole] |  |  | 55 |
| COc1cc(OC)cc(-c2cc(C3CC(C)(C)OC(C)(C)C3)nn2-c2ccccc2OC)c1 [Compound 43, 5-(3,5-Dimethoxyphenyl)-1-(2-methoxyphenyl)-3-(2,2,6,6-tetramethyltetrahydro-2H-pyran-4-yl)-1H-pyrazole] |  |  | 58 |
| COc1ccccc1-n1nc(C2CC(C)(C)OC(C)(C)C2)cc1-c1cccnc1 [Compound 45, 3-[1-(2-Methoxyphenyl)-3-(2,2,6,6-tetramethyltetrahydro-2H-pyran-4-yl)-1H-pyrazol-5-yl]-pyridine] |  |  | 71 |
| CC(C)(C)Oc1ccccc1-n1nc(C2CC(C)(C)OC(C)(C)C2)cc1-c1ccc(Cl)cc1 [Compound 48, 1-(2-tert-Butoxyphenyl)-5-(4-chlorophenyl)-3-(2,2,6,6-tetramethyltetrahydro-2H-pyran-4-yl)-1H-pyrazole] |  |  | 110 |
| COc1ccccc1-n1nc(C2CCOCC2)cc1-c1ccc(Cl)cc1 [Compound 71, 5-(4-Chlorophenyl)-1-(2-methoxyphenyl)-3-(tetrahydro-2H-pyran-4-yl)-1H-pyrazole] |  |  | 31 |
| Clc1ccc(-c2cc(C3CCOCC3)nn2-c2ccccc2Cl)cc1 [Compound 74, 1-(2-Chlorophenyl)-5-(4-chlorophenyl)-3-(tetrahydro-2H-pyran-4-yl)-1H-pyrazole] |  |  | 53 |
| CC1(C)CC(c2cc(-c3ccc(Cl)cc3)n(-c3ccccc3N3CCCC3)n2)CC(C)(C)O1 [Compound 76, 5-(4-Chlorophenyl)-1-(2-pyrrolidin-1-ylphenyl)-3-(2,2,6,6-tetramethyltetrahydro-2H-pyran-4-yl)-1H-pyrazole] |  |  | 100 |
| CCc1ccccc1-n1nc(C2CCOCC2)cc1-c1ccc(Cl)cc1 [Compound 77, 5-(4-Chlorophenyl)-1-(2-ethylphenyl)-3-(tetrahydro-2H-pyran-4-yl)-1H-pyrazole] |  |  | 150 |
| FC(F)(F)Oc1ccccc1-n1nc(C2CCOCC2)cc1-c1ccc(Cl)cc1 [Compound 79, 5-(4-Chlorophenyl)-3-(tetrahydro-2H-pyran-4-yl)-1-[2-(trifluoromethoxy)phenyl]-1H-pyrazole] |  |  | 180 |
| Clc1ccc(-c2cc(C3CCOCC3)nn2-c2c(Cl)cccc2Cl)cc1 [Compound 80, 5-(4-Chlorophenyl)-1-(2,6-dichlorophenyl)-3-(tetrahydro-2H-pyran-4-yl)-1H-pyrazole] |  |  | 200 |
| COc1ccccc1-n1nc(C2CC(C)(C)OC(C)(C)C2)cc1-c1ccc(OCCn2ccnc2)cc1 [Compound 81, 5-{4-[2-(1H-Imidazol-1-yl)ethoxy]phenyl}-1-(2-methoxyphenyl)-3-(2,2,6,6-tetramethyltetrahydro-2H-pyran-4-yl)-1H-pyrazole] |  |  | 400 |
| COc1ccccc1-n1nc(C2CC(C)(C)OC(C)(C)C2)cc1-c1ccc(OCCN(C)C)cc1 [Compound 82, 2-{4-[1-(2-Methoxyphenyl)-3-(2,2,6,6-tetramethyltetrahydro-2H-pyran-4-yl)-1H-pyrazol-5-yl]phenoxy}-N,N-dimethylethanamine] |  |  | 770 |
| COc1ccccc1-n1nc(C2=CC(C)(C)OC2(C)C)cc1-c1ccc(Cl)cc1 [Compound 97, 5-(4-Chlorophenyl)-1-(2-methoxyphenyl)-3-(2,2,5,5-tetramethyl-2,5-dihydrofuran-3-yl)-1H-pyrazole] |  |  | 13 |
